{
  "source": "patent US10987359B2",
  "about": "“Oxadiazepinone derivatives and methods of treating hepatitis B infections” (priority 2016, dated 2021)",
  "data": [
    {"tested_on": "HBV", "test": "HBV replication inhibition assay (BDNA assay) in HepG2.2.15 cells", "assay_type": "cell-based", "details": "HBV replication assay (BDNA assay), HepG2.2.15 cells; read-out: DNA EC50", "method_in_brief": "(§1)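 HepG2.2.15 cells with stably integrated HBV were treated with serially diluted compounds at 0.5% DMSO for 6 days, with medium and compound refreshed at day 3. Encapsidated HBV DNA from DNase-treated supernatant was quantified by branched DNA assay. EC50 came from % inhibition versus DMSO, fitted non-linearly.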", "units": {"EC50": "nM"}, "values": [
      {"smiles": "CCN1OC(CO)Cn2nc3c(c2C1=O)CN(C(=O)Nc1ccc(F)c(Cl)c1)CC3", "note": "(single isomer, unassigned) [Compound 060_E2, (R*)—N-(3-chloro-4-fluorophenyl)-2-ethyl-4-(hydroxymethyl)-1-oxo-1,4,5,8,9,11-hexahydropyrido[4′,3′:3,4]pyrazolo[5,1-d][1,2,5]oxadiazepine-10(2H)-carboxamide]", "EC50": "1 to 100"},
      {"smiles": "C[C@@H]1Cc2nn3c(c2CN1C(=O)Nc1ccc(F)c(C#N)c1)C(=O)N(C)OC(CO)C3", "note": "(stereo in doubt) [Compound 084_E2, (4R*,9R)—N-(3-cyano-4-fluorophenyl)-4-(hydroxymethyl)-2,9-dimethyl-1-oxo-1,4,5,8,9,11-hexahydropyrido[4′,3′:3,4]pyrazolo [5,1-d][1,2,5]oxadiazepine-10(2H)-carboxamide]", "EC50": "1 to 100"},
      {"smiles": "C[C@@H]1Cc2nn3c(c2CN1C(=O)Nc1cc(Br)c(F)cc1F)C(=O)N(C)OC(CN(C)C)C3", "note": "(stereo in doubt) [Compound 100_D2, (4R*,9R)—N-(5-bromo-2,4-difluorophenyl)-4-((dimethylamino)methyl)-2,9-dimethyl-1-oxo-1,4,5,8,9,11-hexahydropyrido[4′,3′:3,4]pyrazolo[5,1-d][1,2,5]oxadiazepine-10(2H)-carboxamide]", "EC50": "1 to 100"},
      {"smiles": "C[C@@H]1Cc2nn3c(c2CN1C(=O)Nc1ccc(F)c(C#N)c1F)C(=O)N(C)OC(C(=O)N(C)CC(F)F)C3", "note": "(stereo in doubt) [Compound 153_D1, (4S*,9R)—N10-(3-cyano-2,4-difluorophenyl)-N4-(2,2-difluoroethyl)-N4,2,9-trimethyl-1-oxo-1,4,5,8,9,11-hexahydropyrido[4′,3′:3,4]pyrazolo[5,1-d][1,2,5]oxadiazepine-4,10(2H)-dicarboxamide]", "EC50": "100 to 500"},
      {"smiles": "C[C@@H]1Cc2nn3c(c2CN1C(=O)Nc1ccc(F)c(Cl)c1F)C(=O)N(C)OC(CO)C3", "note": "(stereo in doubt) [Compound 091_E2, (4R*,9R)—N-(3-chloro-2,4-difluorophenyl)-4-(hydroxymethyl)-2,9-dimethyl-1-oxo-1,4,5,8,9,11-hexahydropyrido[4′,3′:3,4]pyrazolo[5,1-d][1,2,5]oxadiazepine-10(2H)-carboxamide]", "EC50": "1 to 100"}
    ]},
    {"tested_on": "HBV", "test": "HBV replication inhibition assay (BDNA assay) in HepG2.2.15 cells", "assay_type": "cell-based", "details": "Hepatitis B virus, HepG2.2.15, HBV replication assay (BDNA assay), HepG2.2.15 cells; read-out: DNA EC50", "method_in_brief": "as §1", "units": {"EC50": "nM"}, "values": [
      {"smiles": "C[C@@H]1Cc2nn3c(c2CN1C(=O)Nc1ccc(F)c(C#N)c1)C(=O)N(C)N=C(CO)C3", "note": "[Compound 233, (R)-N-(3-cyano-4-fluorophenyl)-4-(hydroxymethyl)-2,9-dimethyl-1-oxo-1,2,5,8,9,11-hexahydro-10H-pyrido[4′,3′:3,4]pyrazolo[5,1-d][1,2,5]triazepine-10-carboxamide]", "EC50": "1 to 100"},
      {"smiles": "CN1OC(CF)Cn2nc3c(c2C1=O)CN(C(=O)Nc1cccc(C(F)(F)F)c1)CC3", "note": "(stereo not drawn) [Compound 036, 4-(fluoromethyl)-2-methyl-1-oxo-N-(3-(trifluoromethyl)phenyl)-1,4,5,8,9,11-hexahydropyrido[4′,3′:3,4]pyrazolo[5,1-d][1,2,5]oxadiazepine-10(2H)-carboxamide]", "EC50": "1 to 100"},
      {"smiles": "CN1OC(C(=O)NCC(F)F)Cn2nc3c(c2C1=O)CN(C(=O)Nc1ccc(F)c(Cl)c1)CC3", "note": "(stereo not drawn) [Compound 136, N10-(3-chloro-4-fluorophenyl)-N4-(2,2-difluoroethyl)-2-methyl-1-oxo-1,4,5,8,9,11-hexahydropyrido[4′,3′:3,4]pyrazolo[5,1-d][1,2,5]oxadiazepine-4,10(2H)-dicarboxamide]", "EC50": "1 to 100"},
      {"smiles": "CN1OC(CO)Cn2nc3c(c2C1=O)CN(C(=O)Nc1cc(F)c(F)c(F)c1F)CC3", "note": "(single isomer, unassigned) [Compound 151_E1, (S*)-4-(hydroxymethyl)-2-methyl-1-oxo-N-(2,3,4,5-tetrafluorophenyl)-1,4,5,8,9,11-hexahydropyrido[4′,3′:3,4]pyrazolo[5,1-d][1,2,5]oxadiazepine-10(2H)-carboxamide]", "EC50": "1 to 100"},
      {"smiles": "CN1OC(CO)Cn2nc3c(c2C1=O)CN(C(=O)N(C)c1ccc(F)c(Cl)c1)CC3", "note": "(stereo not drawn) [Compound 045, N-(3-chloro-4-fluorophenyl)-4-(hydroxymethyl)-N,2-dimethyl-1-oxo-1,4,5,8,9,11-hexahydropyrido[4′,3′:3,4]pyrazolo[5,1-d][1,2,5]oxadiazepine-10(2H)-carboxamide]", "EC50": "100 to 500"},
      {"smiles": "CN1OC(CO)Cn2nc3c(c2C1=O)CN(C(=O)Nc1cc(F)c(F)c(Br)c1)CC3", "note": "(stereo not drawn) [Compound 015, N-(3-bromo-4,5-difluorophenyl)-4-(hydroxymethyl)-2-methyl-1-oxo-1,4,5,8,9,11-hexahydropyrido[4′,3′:3,4]pyrazolo[5,1-d][1,2,5]oxadiazepine-10(2H)-carboxamide]", "EC50": "1 to 100"},
      {"smiles": "CN(CC(F)F)C(=O)C1Cn2nc3c(c2C(=O)N(C)O1)CN(C(=O)Nc1ccc(F)c(Cl)c1)CC3", "note": "(stereo not drawn) [Compound 134, N10-(3-chloro-4-fluorophenyl)-N4-(2,2-difluoroethyl)-N4,2-dimethyl-1-oxo-1,4,5,8,9,11-hexahydropyrido[4′,3′:3,4]pyrazolo[5,1-d][1,2,5]oxadiazepine-4,10(2H)-dicarboxamide]", "EC50": "1 to 100"},
      {"smiles": "CN1OC(CO)Cn2nc3c(c2C1=O)CN(C(=O)Nc1cc(C#N)ccc1F)CC3", "note": "(single isomer, unassigned) [Compound 145_E1, (S*)—N-(5-cyano-2-fluorophenyl)-4-(hydroxymethyl)-2-methyl-1-oxo-1,4,5,8,9,11-hexahydropyrido[4′,3′:3,4]pyrazolo[5,1-d][1,2,5]oxadiazepine-10(2H)-carboxamide]", "EC50": "> 1000"},
      {"smiles": "CC(=O)OCC1Cn2nc3c(c2C(=O)N(C)O1)CN(C(=O)Nc1ccc(F)c(Cl)c1)CC3", "note": "(stereo not drawn) [Compound 052, (10-((3-chloro-4-fluorophenyl)carbamoyl)-2-methyl-1-oxo-1,2,4,5,8,9,10,11-octahydropyrido[4′,3′:3,4]pyrazolo[5,1-d][1,2,5]oxadiazepin-4-yl)methyl acetate]", "EC50": "1 to 100"},
      {"smiles": "CN1OC(COC(=O)OC(C)(C)C)Cn2nc3c(c2C1=O)CN(C(=O)Nc1ccc(F)c(Cl)c1)CC3", "note": "(stereo not drawn) [Compound 054, tert-butyl ((10-((3-chloro-4-fluorophenyl)carbamoyl)-2-methyl-1-oxo-1,2,4,5,8,9,10,11-octahydropyrido[4′,3′:3,4]pyrazolo[5,1-d][1,2,5]oxadiazepin-4-yl)methyl) carbonate]", "EC50": "1 to 100"},
      {"smiles": "CN(CC(F)(F)F)C(=O)C1Cn2nc3c(c2C(=O)N(C)O1)CN(C(=O)Nc1ccc(F)c(Cl)c1)CC3", "note": "(stereo not drawn) [Compound 133, N10-(3-chloro-4-fluorophenyl)-N4,2-dimethyl-1-oxo-N4-(2,2,2-trifluoroethyl)-1,4,5,8,9,11-hexahydropyrido[4′,3′:3,4]pyrazolo[5,1-d][1,2,5]oxadiazepine-4,10(2H)-dicarboxamide]", "EC50": "1 to 100"},
      {"smiles": "C[C@@H]1Cc2nn3c(c2CN1C(=O)Nc1ccc(F)c(Cl)c1)C(=O)N(C)O[C@@H](CO)C3", "note": "(stereo in doubt) [Compound 069_E3, (4R*,9R*)—N-(3-chloro-4-fluorophenyl)-4-(hydroxymethyl)-2,9-dimethyl-1-oxo-1,4,5,8,9,11-hexahydropyrido[4′,3′:3,4]pyrazolo[5,1-d][1,2,5]oxadiazepine-10(2H)-carboxamide]", "EC50": "100 to 500"},
      {"smiles": "CN1OC(CNCC(F)F)Cn2nc3c(c2C1=O)CN(C(=O)Nc1ccc(F)c(Br)c1F)CC3", "note": "(single isomer, unassigned) [Compound 189_E1, (S*)—N-(3-bromo-2,4-difluorophenyl)-4-(((2,2-difluoroethyl)amino)methyl)-2-methyl-1-oxo-1,4,5,8,9,11-hexahydropyrido[4′,3′:3,4]pyrazolo[5,1-d][1,2,5]oxadiazepine-10(2H)-carboxamide]", "EC50": "1 to 100"},
      {"smiles": "CN1OC(CO)Cn2nc3c(c2C1=O)CN(C(=O)Nc1cc(C(F)(F)F)c(F)cc1F)CC3", "note": "(single isomer, unassigned) [Compound 147_E1, (S*)—N-(2,4-difluoro-5-(trifluoromethyl)phenyl)-4-(hydroxymethyl)-2-methyl-1-oxo-1,4,5,8,9,11-hexahydropyrido[4′,3′:3,4]pyrazolo[5,1-d][1,2,5]oxadiazepine-10(2H)-carboxamide]", "EC50": "1 to 100"},
      {"smiles": "C[C@@H]1Cc2nn3c(c2CN1C(=O)Nc1ccc(F)c(C#N)c1)C(=O)N(C)N(C)CC3", "note": "[Compound 224, (R)-N-(3-cyano-4-fluorophenyl)-2,3,9-trimethyl-1-oxo-1,2,3,4,5,8,9,11-octahydro-10H-pyrido[4′,3′:3,4]pyrazolo[5,1-d][1,2,5]triazepine-10-carboxamide]", "EC50": "1 to 100"},
      {"smiles": "C[C@@H]1Cc2nn3c(c2CN1C(=O)Nc1ccc(F)c(Cl)c1F)C(=O)N(C)OC(C(=O)N(C)CC(F)F)C3", "note": "(single isomer, unassigned) [Compound 152_D1, (4S*,9R)—N10-(3-chloro-2,4-difluorophenyl)-N4-(2,2-difluoroethyl)-N4,2,9-trimethyl-1-oxo-1,4,5,8,9,11-hexahydropyrido[4′,3′:3,4]pyrazolo[5,1-d][1,2,5]oxadiazepine-4,10(2H)-dicarboxamide]", "EC50": "1 to 100"},
      {"smiles": "C[C@H]1Cc2nn3c(c2CN1C(=O)Nc1ccc(F)c(Cl)c1)C(=O)N(C)O[C@@H](CO)C3", "note": "(stereo in doubt) [Compound 069_E2, (4R*,9S*)—N-(3-chloro-4-fluorophenyl)-4-(hydroxymethyl)-2,9-dimethyl-1-oxo-1,4,5,8,9,11-hexahydropyrido[4′,3′:3,4]pyrazolo[5,1-d][1,2,5]oxadiazepine-10(2H)-carboxamide]", "EC50": "1 to 100"},
      {"smiles": "CN1OC(CO)Cn2nc3c(c2C1=O)CN(C(=O)Nc1ccnc(Cl)c1F)CC3", "note": "(stereo not drawn) [Compound 003, N-(2-chloro-3-fluoropyridin-4-yl)-4-(hydroxymethyl)-2-methyl-1-oxo-1,4,5,8,9,11-hexahydropyrido[4′,3′:3,4]pyrazolo[5,1-d][1,2,5]oxadiazepine-10(2H)-carboxamide]", "EC50": "100 to 500"},
      {"smiles": "CC1CCCC(NC(=O)N2CCc3nn4c(c3C2)C(=O)N(C)OC(CO)C4)C1", "note": "(stereo not drawn) [Compound 019, 4-(hydroxymethyl)-2-methyl-N-(3-methylcyclohexyl)-1-oxo-1,4,5,8,9,11-hexahydropyrido[4′,3′:3,4]pyrazolo[5,1-d][1,2,5]oxadiazepine-10(2H)-carboxamide]", "EC50": "500 to 1000"}
    ]}
  ]
}
